In publication PMC2113498 (The Journal of Cell Biology, 1985):

What was measured:
[1] = tested on: a-toxin binding to the receptor, extracted membranes; experiment: Inhibition of a-toxin labeling of membranes; parameters: species or system Torpedo californica; settings: 10 mM carbamylcholine added to the solutions of the toxin; Fig. 6H
mab 274D / AChR = experiment: Inhibition of binding of mab 274D to AChR by peptides; parameters: species or system Torpedo nobiliana; settings: ELISA; tested at concentrations exceeding 36 uM
mab 264E / AChR = experiment: Inhibition of binding of mab 264E to AChR by peptides; parameters: species or system Torpedo nobiliana; settings: ELISA; tested at concentrations exceeding 36 uM

| Compound | labeling of a-toxin sites in presence of competitor [1] | inhibition of binding of mab 274D to AChR (mab 274D / AChR) | inhibition of binding of mab 264E to AChR (mab 264E / AChR) |
| --- | --- | --- | --- |
| C[N+](C)(C)CCOC(N)=O.[Cl-] [carbamylcholine] | substantially reduced the labeling | – | – |
| Ac-PFEGDPFDYSSDHPRG-OH [Delta-peptide 485-499] | – | failed to inhibit the binding of either mab | failed to inhibit the binding of either mab |
